Here are results for 7 molecules from patent publication US12655436B2, “Import of unnatural or modified nucleoside triphosphates into cells via nucleic acid triphosphate transporters” (The Scripps Research Institute, priority 2014, dated 2026).

SMILES strings stand for the structures.

Data set [1] concerns E. coli C41(DE3). Description: pINF replication in E. coli C41(DE3)-pACS: growth (OD600) and relative plasmid copy number. As to conditions: 0.25 mM triphosphates; absence of pINF.
Experimental: A single clone of freshly transformed E. coli C41(DE3)-pACS was grown overnight in 2×YT medium (3 ml) supplemented with streptomycin (50 μg/ml) and KPi (50 mM). After 100-fold dilution into the same medium (300 ml) and outgrowth at 37° C. to an OD600 of 0.20, IPTG was added to a final concentration of 1 mM to induce the expression of PtNTT2. After 40 min, the cultures were rapidly cooled to 0° C., washed with sterile water (3×150 ml), and resuspended in 10% glycerol (1.5 ml).
An aliquot of electrocompetent C41(DE3)-pACS cells (50 μL) was mixed with pINF (2 μL, 400 ng), and electroporated in a 0.2 cm gap cuvette. […]
The cells were resuspended in fresh 2×YT medium (1.5 ml, 50 μg/ml streptomycin, 100 μg/ml ampicillin, 1 mM IPTG, 50 mM KPi, 0.25 mM dNaMTP, 0.25 mM d5SICSTP) and grown at 37° C. with shaking (250 rpm). At defined time points, OD600 was determined and aliquots (100 μl) were removed and centrifuged (8000 rfu for 5 min, 4° C.). Spent media was analyzed for nucleotide composition by HPLC and pINF was recovered by spin column purification (Zymo Research Corp.). […]
After recovery, the cells were centrifuged (4000 rfu for 5 min, 4° C.), spent media (0.15 ml) was removed and analyzed for nucleotide composition by HPLC. […]
In data set [2] the test system is actively growing E. coli. As to conditions: for degradation of triphosphate in the presence of actively growing E. coli: preliminary characterization, HPLC and MALDI.
Experimental: dNaMTP or d5SICSTP (10 mM each) were added to media to a final concentration of 0.25 mM. Cells were incubated with the substrate with shaking at 37° C. for 30 min and then pelleted (8,000 rfu for 5 min, 4° C.). An aliquot of the media fraction (40 μl) was mixed with acetonitrile (80 μl) to precipitate proteins, and then incubated at RT for 30 min. Samples were either analyzed immediately by HPLC or stored at −80° C. until analysis. Analysis began with centrifugation (12,000 rfu for 10 min, RT), then the pellet was discarded, and the supernatant was reduced to ˜20 μl, resuspended in 95% 0.1 M TEAB, pH 7.5; 5% acetonitrile, to a final volume of 50 μl, and analyzed by HPLC.
Samples were applied to a LC column (3 μm C18 300 Å, 250×4.6 mm) and subjected to a linear gradient of 0-40% with 20% 0.1 M TEAB, pH 7.5; 80% acetonitrile over 40 min at a flow rate of 1 ml/min.
Injection series included two extra control samples containing 5 nmol of dNaMTP or d5SICSTP. […] After peak integration, the ratio of the unknown peak to the control peak adjusted for the loss from the extraction step (62% and 70% loss for dNaM and d5SICS, respectively), provided a measure of the amount of each of the moieties in a sample. To determine the relative concentrations of unnatural nucleotide inside a cell, the amount of imported unnatural nucleotide was then divided by the volume of cells, which was calculated from the volume of a single E. coli cell of (1 μm^3) multiplied by the number of cells in each culture (OD600 of 1.0 equal to 1×10^9 cells per ml). An RpNTT2 sample was used as a negative control and its signal was subtracted to account for any incomplete washing of nucleotide species from the media.
For data set [3], the system named is PtNTT2. The data set is described as follows: Uptake of d5SICSTP or dNaMTP into E. coli C41(DE3) expressing PtNTT2, media and cytoplasmic fractions by HPLC. In kind it is cell-based, Escherichia coli C41(DE3) expressing PtNTT2. As for the experimental part:
(§1) E. coli C41(DE3) freshly transformed with pCDF-1b-PtNTT2 was grown in 2×YT with streptomycin overnight, then diluted (1:100) into fresh 2×YT medium (1 ml of culture per uptake with [α-^32P]-dATP; 2 ml of culture per uptake with d5SICSTP or dNaMTP) supplemented with 50 mM potassium phosphate (KPi) and streptomycin. […] Cells were grown to an OD600 of ˜0.6 and expression was induced by the addition of IPTG (1 mM). The culture was allowed to grow for another hour (final OD600 ˜1.2) and then assayed directly for uptake as described below using a method adapted from Haferkamp, et al.
To analyze the intracellular dephosphorylation of unnatural nucleoside triphosphates, cell pellets were subjected to 3×100 μl washes of ice cold KPi (50 mM). Pellets were then resuspended in 250 μl of ice cold KPi (50 mM) and lysed with 250 μl of Lysis buffer L7 of the PureLink Quick Plasmid DNA Miniprep Kit (200 mM NaOH, 1% w/v SDS), after which the resulting solution was incubated at RT for 5 min. Precipitation buffer N4 (350 μl, 3.1 M potassium acetate, pH 5.5) was added, and the sample was mixed to homogeneity.

Data set [4] in a line: Nucleotide extraction from cells for HPLC analysis: recovery and triphosphate decomposition. Also on record: species or system E. coli. As to conditions: ratio of 3P composition before and after extraction. As to the method:
To minimize the effect of the lysis and triphosphate extraction protocols on the decomposition of nucleoside triphosphate within the cell, the following extraction procedure was discovered that led to an unexpectedly highest recovery with and low extent of decomposition (Table 9). Cells were grown, washed, and then 5 nmol of either dNaMTP or d5SICSTP was added to the pellets, which were then subjected to various types of extractions including boiling water, hot ethanol, cold methanol, freeze and thaw, lysozyme, glass beads, NaOH, trichloroacetic acid (TCA) with Freon, and perchloric acid (PCA) with KOH. The recovery and composition of the control was quantified by HPLC. […] Pellets were resuspended in ice cold KPi (50 mM, 250 μl) before addition of NaOH to decrease dephosphorylation after cell lysis (Method 4).

For data set [5], the system named is Polymerase. As to conditions: 10, 5, 2 or 1 μM, 30° C., 20 nM DNA.
Experimental: Polymerase (15 μg/ml) is incubated at 30° C. in buffer (50 mM TRIS pH 7.5, 0.05% Tween 20, 6 mM MgSO4, 1 mM EDTA, 50 mM NaCl) with 20 nM DNA. […] Tubes are incubated at 30° C. and aliquots are taken at 0.33, 0.66, 1, 2, 5, and 15 mins from the 4 reaction tubes for quenching and 15% urea acrylamide gel analysis. 1 mM dNTPs are added to the remaining reaction tubes and after a further 10 mins an aliquot is taken for gel analysis (chase).
Data set [6] has as its system PamNTT5. The data set is described as follows: [α-32P]-dATP uptake into E. coli C41(DE3) expressing NTT, TLC/phosphorimaging. The data set is classed as cell-based, Protochlamydia amoebophila. As to the method: as §1
(§2) To analyze the intracellular dephosphorylation of dATP, after induction of an NTT, an uptake reaction was initiated by the addition of dATP (spiked with [α-^32P]-dATP) to a final concentration of 0.25 mM, followed by incubation at 37° C. with shaking for 30 min. A culture was then centrifuged (8,000 rfu for 5 min, RT). Supernatant was analyzed by thin layer chromatography (TLC), while cell pellets were washed 3 times with ice cold KPi (50 mM, 100 μL) to remove excess radioactive substrate, lysed with NaOH (0.2 M, 100 μl) and centrifuged (10,000 rfu for 5 min RT) to pellet the cell debris, before the supernatant (1.5 μl) was analyzed by TLC. […]

Data set [7] concerns PamNTT2. Described as above. In kind it is cell-based, Protochlamydia amoebophila. As to the method:
as §1, §2

The subject of data set [8] is TpNTT2. The data set is described as above. In kind it is cell-based, Thalassiosira pseudonana. As to the method:
as §1, §2

For data set [9], the system named is PtNTT2. The description is as above. As to conditions: for dATP transport into cells by NTT: PtNTT2. In kind it is cell-based, Phaeodactylum tricornutum. As for the experimental part: as §1
To analyze the intracellular dephosphorylation of dATP, after induction of an NTT, an uptake reaction was initiated by the addition of dATP (spiked with [α-^32P]-dATP) to a final concentration of 0.25 mM, followed by incubation at 37° C. with shaking for 30 min. A culture was then centrifuged (8,000 rfu for 5 min, RT). Supernatant was analyzed by thin layer chromatography (TLC), while cell pellets were washed 3 times with ice cold KPi (50 mM, 100 μL) to remove excess radioactive substrate, lysed with NaOH (0.2 M, 100 μl) and centrifuged (10,000 rfu for 5 min RT) to pellet the cell debris, before the supernatant (1.5 μl) was analyzed by TLC.
Samples (1 μl) were applied on a 0.5 mm polyethyleneimine cellulose TLC plate and eluted first by sodium formate (0.5 M, pH 3.0) for 30 sec, then by sodium formate (2.5 M, pH 3.0) for 2.5 m, and finally by sodium formate (4.0 M, pH 3.0) for 40 m. Plates were dried using a heat gun and quantified by phosphorimaging and imaging software.
The experiments described herein illustrate the plasmid-based expression of eight different NTTs in E. coli C41(DE3) (Table 9A). The uptake of [α-^32P]-dATP was examined as a surrogate for the unnatural triphosphates (FIG. 5).

As to `Cc1ccc2c(=S)n([C@H]3C[C@H](O)[C@@H](COP(=O)(O)OP(=O)(O)OP(=O)(O)O)O3)ccc2c1` [d5SICSTP], the “effect of added triphosphates on E. coli growth / toxicity” value in [1] is “only a slight decrease in growth”. For the same molecule, the “degradation of triphosphate in the presence of actively growing E. coli” value in data set [2] is reported as “degraded”. In addition, the “import into E. coli by PtNTT2” value in data set [3] is on record as “efficiently imported”.
With `COc1cc2ccccc2cc1[C@H]1C[C@H](O)[C@@H](CO)O1` [dNaM], the “Triphosphate stability, %” value in data set [4] (Method 1 TCA with Freon) is recorded as 92%; in [4] (Method 2 PCA w/KOH) it was 98%; in data set [4] (Method 3 NaOH w/KOAc), 86%; in [4] (Method 4 NaOH w/KOAc supplemented w/ KPi (50 mM)), 99%.
On to `O=P(O)(O)O` [KPi, potassium phosphate, reference compound], for which, in [2] (growing bacterial culture), the “inhibition of dephosphorylation of unnatural triphosphates” value was “significantly inhibited”.
In the case of `COc1cc2ccccc2cc1[C@H]1C[C@H](O)[C@@H](CO)O1` [(d)NaM], the “addition to DNA primer by polymerase (gel band shift)” value in [5] is recorded as “extension by one base”.
On to `Nc1ncnc2c1ncn2[C@H]1C[C@H](O)[C@@H](COP(=O)(O)OP(=O)(O)OP(=O)(O)O)O1` [dATP], for which the “dATP uptake by NTT” value in data set [6] and in data set [7] was “measurable uptake” in each case. In [2] (KPi in growth medium), the “extracellular stability in the presence of potassium phosphate (KPi)” value is given as “significantly increased”. Further, the “dATP transport into cells by NTT” value was “efficiently transported” in data set [8], “efficiently transported” in [9] and “significantly more active” in data set [9] (listed as [α-^32P]-dATP). In data set [9] (1 mM IPTG induction, media containing 50 mM KPi), the “[α-32P]-dATP uptake as a function of transporter induction” value is on record as “maximal”.
Turning to `COc1cc2ccccc2cc1[C@H]1C[C@H](O)[C@@H](COP(=O)(O)OP(=O)(O)OP(=O)(O)O)O1` [dNaMTP], the “effect of added triphosphates on E. coli growth / toxicity” value in data set [1] was “only a slight decrease in growth”. Also, the “degradation of triphosphate in the presence of actively growing E. coli” value in [2] is given as “degraded”. The “import into E. coli by PtNTT2” value in data set [3] is “efficiently imported”.
`Cc1ccc2c(=S)n([C@H]3C[C@H](O)[C@@H](CO)O3)ccc2c1` [(d)5SICS]: in data set [5], the “addition to DNA primer by polymerase (gel band shift)” value is “extension by one base”.
